Measured values reported in patent US11905252B2, “Compounds” (INFLAZOME LIMITED, priority 2018, dated 2024).

Biological target: T1, NLRP3 (Homo sapiens, UniProt Q96P20)
T1 construct: Seed THP-1 cells (25,000 cells/well) containing 1.0 μg/ml LPS; host or cells: THP-1 cells, LPS-primed, nigericin-stimulated
Assay: THP-1 cells pyroptosis assay (LPS-primed, nigericin-stimulated, resazurin readout)
Format: cell-based
Details: 1 μg/ml LPS, 5 μM nigericin
Description: THP-1 cells (ATCC #TIB-202) were grown in RPMI containing L-glutamine (Gibco #11835) supplemented with 1 mM sodium pyruvate (Sigma #S8636) and penicillin (100 units/ml)/streptomycin (0.1 mg/ml) (Sigma #P4333) in 10% Fetal Bovine Serum (FBS) (Sigma #F0804). The cells were routinely passaged and grown to confluency (˜10^6 cells/ml). On the day of the experiment, THP-1 cells were harvested and resuspended into RPMI medium (without FBS). The cells were then counted and viability (>90%) checked by Trypan blue (Sigma #T8154). Appropriate dilutions were made to give a concentration of 625,000 cells/ml. To this diluted cell solution was added LPS (Sigma #L4524) to give a 1 μg/ml Final Assay Concentration (FAC). 40 μl of the final preparation was aliquoted into each well of a 96-well plate. The plate thus prepared was used for compound screening.
The following method step-by-step assay was followed for compound screening. • 1. Seed THP-1 cells (25,000 cells/well) containing 1.0 μg/ml LPS in 40 μl of RPMI medium (without FBS) in 96-well, black walled, clear bottom cell culture plates coated with poly-D-lysine (VWR #734-0317) • 2. Add 5 μl compound (8 points half-log dilution, with 10 μM top dose) or vehicle (DMSO 0.1% FAC) to the appropriate wells • 3. Incubate for 3 hrs at 37° C. in 5% CO2 • 4. […] Plates were read in an Envision reader at Ex 560 nm and Em 590 nm • 9. […]

T1 sequence (Q96P20 whole entry): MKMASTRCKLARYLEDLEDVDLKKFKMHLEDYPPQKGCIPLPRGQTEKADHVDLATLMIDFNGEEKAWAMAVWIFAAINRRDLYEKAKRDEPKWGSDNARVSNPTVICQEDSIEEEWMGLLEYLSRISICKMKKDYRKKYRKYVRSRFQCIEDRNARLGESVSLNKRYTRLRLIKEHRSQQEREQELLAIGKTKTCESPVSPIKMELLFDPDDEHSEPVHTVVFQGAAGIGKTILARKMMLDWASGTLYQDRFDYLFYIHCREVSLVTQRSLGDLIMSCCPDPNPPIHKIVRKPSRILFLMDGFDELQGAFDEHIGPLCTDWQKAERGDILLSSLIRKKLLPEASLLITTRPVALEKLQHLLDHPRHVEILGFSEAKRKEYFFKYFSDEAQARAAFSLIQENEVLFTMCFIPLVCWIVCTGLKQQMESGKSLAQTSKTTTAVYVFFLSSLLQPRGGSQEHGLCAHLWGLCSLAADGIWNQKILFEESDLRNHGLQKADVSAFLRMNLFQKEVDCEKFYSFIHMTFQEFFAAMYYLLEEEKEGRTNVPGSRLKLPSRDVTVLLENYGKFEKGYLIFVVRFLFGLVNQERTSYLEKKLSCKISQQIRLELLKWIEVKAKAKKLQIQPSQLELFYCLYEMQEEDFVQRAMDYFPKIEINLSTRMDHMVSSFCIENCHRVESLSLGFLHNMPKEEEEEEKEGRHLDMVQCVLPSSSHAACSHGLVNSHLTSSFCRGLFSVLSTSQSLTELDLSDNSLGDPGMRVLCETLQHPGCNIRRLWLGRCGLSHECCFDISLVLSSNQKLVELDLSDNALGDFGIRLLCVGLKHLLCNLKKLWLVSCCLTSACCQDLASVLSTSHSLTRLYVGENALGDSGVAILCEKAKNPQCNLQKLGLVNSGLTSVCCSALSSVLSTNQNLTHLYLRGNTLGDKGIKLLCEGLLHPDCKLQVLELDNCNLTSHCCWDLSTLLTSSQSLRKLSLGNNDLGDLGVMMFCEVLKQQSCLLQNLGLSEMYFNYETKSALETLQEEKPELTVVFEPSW

Cn1nc(S(=O)(=O)NC(=O)Nc2c3c(c(Br)c4c2CCC4)CCC3)cc1C(C)(C)O [Example 2, N-((8-Bromo-1,2,3,5,6,7-hexahydro-s-indacen-4-yl)carbamoyl)-5-(2-hydroxypropan-2-yl)-1-methyl-1H-pyrazole-3-sulfonamide]
IC50: ≤ 160 nM

Cn1nc(S(=O)(=O)NC(=O)Nc2c3c(c(C#N)c4c2CCC4)CCC3)cc1C(C)(C)O [Example 1, N-((8-Cyano-1,2,3,5,6,7-hexahydro-s-indacen-4-yl)carbamoyl)-5-(2-hydroxypropan-2-yl)-1-methyl-1H-pyrazole-3-sulfonamide]
IC50: 160 to 640 nM
